Results taken from ChEMBL document CHEMBL1137898, “Benzopyranones with retro-amide side chains as (inhibitory) beta-lactamase substrates” (Bioorg Med Chem Lett, 2004).

Legend:
[1] = biological target: Beta-lactamase OXA-1 (Escherichia coli) (UniProt P13661); test: Steady state kinetic as limiting rate of OXA-1 beta-lactamase hydrolysis
[2] = biological target: Beta-lactamase TEM (Escherichia coli) (UniProt P62593); test: Steady state kinetic as limiting rate of TEM-2 beta-lactamase hydrolysis
[3] = biological target: Beta-lactamase (Enterobacter cloacae) (UniProt P05364); test: Steady state kinetic as limiting rate of Enterobacter cloacae P99 Beta-lactamase catalyzed hydrolysis
Sequence of Beta-lactamase (Enterobacter cloacae) (P05364 21-381 limits assumed): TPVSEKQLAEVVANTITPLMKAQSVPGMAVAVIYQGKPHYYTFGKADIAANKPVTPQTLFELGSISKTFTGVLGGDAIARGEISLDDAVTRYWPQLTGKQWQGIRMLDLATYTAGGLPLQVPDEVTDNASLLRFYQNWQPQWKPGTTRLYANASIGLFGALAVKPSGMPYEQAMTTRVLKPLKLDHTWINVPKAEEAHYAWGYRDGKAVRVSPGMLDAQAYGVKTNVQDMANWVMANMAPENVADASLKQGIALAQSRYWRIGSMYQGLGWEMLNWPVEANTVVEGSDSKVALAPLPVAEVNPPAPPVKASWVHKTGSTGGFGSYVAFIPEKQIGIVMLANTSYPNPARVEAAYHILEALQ

[4] = biological target: Beta-lactamase (Staphylococcus aureus) (UniProt P00807); test: Steady state kinetic as limiting rate of Staphylococcus aureus PC1 Beta-lactamase hydrolysis
Sequence of Beta-lactamase (Staphylococcus aureus) (P00807 whole entry): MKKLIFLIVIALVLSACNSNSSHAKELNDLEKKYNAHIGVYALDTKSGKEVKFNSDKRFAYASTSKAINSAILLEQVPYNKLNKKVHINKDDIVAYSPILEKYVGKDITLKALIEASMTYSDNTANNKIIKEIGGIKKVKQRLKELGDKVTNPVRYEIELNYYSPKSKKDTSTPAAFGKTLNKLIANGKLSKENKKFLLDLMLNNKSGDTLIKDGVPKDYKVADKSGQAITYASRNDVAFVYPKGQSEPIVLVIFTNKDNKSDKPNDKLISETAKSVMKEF

[5] = biological target: D-alanyl-D-alanine carboxypeptidase (Streptomyces sp. R61) (UniProt P15555); test: Second order rate constant for inactivation of Streptomyces R61 D-alanyl-D-alanine carboxypeptidase; details: Streptomyces spp.
Sequence of D-alanyl-D-alanine carboxypeptidase (Streptomyces sp. R61) (P15555 whole entry): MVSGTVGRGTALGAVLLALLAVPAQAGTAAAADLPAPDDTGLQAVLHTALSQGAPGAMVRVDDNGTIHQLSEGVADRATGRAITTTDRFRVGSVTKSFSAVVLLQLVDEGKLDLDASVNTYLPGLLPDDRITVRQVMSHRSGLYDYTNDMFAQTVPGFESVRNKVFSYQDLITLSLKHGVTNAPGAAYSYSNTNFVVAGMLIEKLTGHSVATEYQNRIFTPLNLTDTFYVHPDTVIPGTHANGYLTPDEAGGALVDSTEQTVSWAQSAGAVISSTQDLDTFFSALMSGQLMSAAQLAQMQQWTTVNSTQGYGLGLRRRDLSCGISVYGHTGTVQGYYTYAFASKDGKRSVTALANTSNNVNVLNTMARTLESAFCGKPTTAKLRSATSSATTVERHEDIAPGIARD

Sequence of Beta-lactamase OXA-1 (Escherichia coli) (P13661 whole entry): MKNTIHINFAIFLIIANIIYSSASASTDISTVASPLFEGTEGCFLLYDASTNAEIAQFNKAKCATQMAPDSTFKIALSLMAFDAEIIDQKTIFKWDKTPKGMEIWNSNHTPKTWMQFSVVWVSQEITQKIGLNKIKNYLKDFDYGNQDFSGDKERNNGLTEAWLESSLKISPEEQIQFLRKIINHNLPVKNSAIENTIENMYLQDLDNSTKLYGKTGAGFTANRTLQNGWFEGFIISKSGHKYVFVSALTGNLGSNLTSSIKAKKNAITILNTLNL
Sequence of Beta-lactamase TEM (Escherichia coli) (P62593 whole entry): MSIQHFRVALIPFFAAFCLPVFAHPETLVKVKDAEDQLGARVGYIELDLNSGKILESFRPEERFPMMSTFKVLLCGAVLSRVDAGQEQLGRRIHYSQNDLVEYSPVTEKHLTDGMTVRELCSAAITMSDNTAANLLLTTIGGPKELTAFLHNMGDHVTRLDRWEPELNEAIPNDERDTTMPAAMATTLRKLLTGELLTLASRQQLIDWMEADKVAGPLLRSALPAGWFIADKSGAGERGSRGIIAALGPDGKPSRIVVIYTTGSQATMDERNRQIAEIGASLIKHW

SMILES	K cat [1] [s⁻¹]	K cat [2] [s⁻¹]	K cat [3] [s⁻¹]	K cat [4] [s⁻¹]	K [5]
CC(=O)OCC1=C(C(=O)O)N2C(=O)[C@@H](NC(=O)Cc3cccs3)[C@H]2SC1	1.2	120	200	0.001	
O=C(Cc1ccccc1)NC1Cc2cccc(C(=O)O)c2OC1=O (stereo not given)	1.2	2.07	5.4	0.0047	1.5 1/sM
O=C(O)c1cccc2c1OC(=O)C(C(=O)NCc1ccccc1)C2 (stereo not given)	0.25	25.5	0.44	0.01	22 1/sM
O=C(Cc1ccccc1)NC1Cc2ccc(C(=O)O)cc2OC1=O (stereo not given)		> 1	5.6	0.02	
O=C(O)c1ccc2c(c1)OC(=O)C(C(=O)NCc1ccccc1)C2 (stereo not given)		> 0.02	1.18	> 0.005	
